Test results published in US20150086490A1, “ORAL CARE COMPOSITIONS AND METHODS” (Colgate-Palmolive Company, priority 2009, published 2015).

System: MMP-13 gene expression
Assay: PTH stimulated MMP-13 gene expression in UMR 106-01 cells, real time quantitative RT-PCR
Type: cell-based, rat
Settings: for effect on PTH stimulated MMP-13 gene expression (in words): summary of the table's results
Protocol: Parathyroid hormone (PTH) stimulates the transcription of MMP-13. The experimental method utilizes PTH to stimulate MMP-13 transcription in UMR 106-01 cells, which are cells derived from a rat osteoblastic cell line. The UMR 106-01 cell line provides useful model system for studying effects of PTH on osteoblasts in vitro. See, e.g., Qin, L. et al. Journal of Biological Chemistry, 278(22), 19723 (2003).
The UMR 106-01 cells were cultured in Eagle's minimal essential medium (EMEM) supplemented with 25 mM Hepes 7.4, 1% nonessential amino acids, 100 units/ml penicillin, 100 μg/ml streptomycin and 5% fetal bovine serum.
UMR 106-01 cells were seeded in 12-well plates and cultured for 2-3 days in cell culture media. When cells were confluent, the cell culture media was changed to 1% fetal bovine serum (not 5% fetal bovine sertn) for overnight cell starvation. The cells were preincubated with active ingredient for 15 min and then incubated with PTH (10^−8 M) for 4 hours.
Total RNA from UMR 106-01 cells stimulated with or without PTH was isolated with TRIzol reagent. Total RNA (0.1 μg) was reverse-transcribed to cDNA with the Invitrogen Superscript kit according to the manufacturer's instructions. PCR was performed on cDNA using primers, and the sequences used are listed below. All were amplified by adding 2.5 μl of cDNA to the PCR mixture (22.5 μl) containing each primer (0.2 μM) and 12.5 μl of the Platinum SYBR Green qPCR SuperMix UDG (Invitrogen). The reactions were pre-incubated at 50° C. for 2 minutes for decontamination of dU-containing DNA by UDG, then at 95° C. for 2 minutes to inactivate UDG and activate Taq. The PCR program continued for 49 cycles of denaturation at 95° C. for 15 seconds, annealing and elongation of the primers at 60° C. for 30 seconds. Relative quantification of gene expression was determined by using the 2-delta delta CT method where fold changes in gene expression are relative to control samples. All samples were normalized to β-actin.

[1] = PTH (10^−8 M, 4 hours) + active 10 ppm (15 min preincubation)
[2] = active alone (no PTH), 10 ppm in simple solution

Structure (SMILES) | fold change in MMP-13 gene expression relative to the control sample, Average [1] [fold] | fold change in MMP-13 gene expression relative to the control sample, Average [2] [fold] | effect on PTH stimulated MMP-13 gene expression (in words) | fold change in MMP-13 gene expression relative to the control sample, Average (PTH (10^−8 M, 4 hours) + active 7 ppm (15 min preincubation)) [fold] | fold change in MMP-13 gene expression relative to the control sample, Average (active alone (no PTH), 7 ppm in simple solution) [fold] | fold change in MMP-13 gene expression relative to the control sample, Average (PTH (10^−8 M, 4 hours) + active 0.1 ppm (15 min preincubation)) [fold] | fold change in MMP-13 gene expression relative to the control sample, Average (PTH (10^−8 M, 4 hours) + active 1 ppm (15 min preincubation)) [fold] | fold change in MMP-13 gene expression relative to the control sample, Average (PTH (10^−8 M, 4 hours) + active 50 ppm (15 min preincubation)) [fold] | fold change in MMP-13 gene expression relative to the control sample, Average (PTH (10^−8 M, 4 hours) + active 100 ppm (15 min preincubation)) [fold] | fold change in MMP-13 gene expression relative to the control sample, Average (active alone (no PTH), 0.1 ppm in simple solution) [fold] | fold change in MMP-13 gene expression relative to the control sample, Average (active alone (no PTH), 1 ppm in simple solution) [fold] | fold change in MMP-13 gene expression relative to the control sample, Average (active alone (no PTH), 50 ppm in simple solution) [fold] | fold change in MMP-13 gene expression relative to the control sample, Average (active alone (no PTH), 100 ppm in simple solution) [fold]
CC(=O)O[C@@H]1CC[C@@]2(C)[C@@H](CC[C@]3(C)[C@@H]2C(=O)C=C2[C@@H]4[C@@H](C)[C@H](C)CC[C@]4(C)CC[C@]23C)[C@@]1(C)C(=O)O [AKBBA, Acetyl keto β-boswellic acid] | 59.77 | 1.45 | decreases the expression |  |  |  |  |  |  |  |  |  | 
CC1CCC(C(C)C)C(OC(=O)Nc2ccccc2O)C1 (centres unmarked) [Compound A, 2-isopropyl-5-methylcyclohexyl 2-hydroxyphenylcarbantate] |  |  | decreases the expression | 14.674 | 7.41 |  |  |  |  |  |  |  | 
CC(=O)Nc1ccc(OC(=O)OC2CC(C)CCC2C(C)C)cc1 (centres unmarked) [Compound B, 4-acetamidophenyl 2-isopropyl-5-methylcyclohexyl carbonate] | 49.86 | 5.78 | decreases the expression |  |  |  |  |  |  |  |  |  | 
Oc1ccc(C=Cc2cc(O)cc(O)c2)cc1 [Resveratrol, 3,5,4′-trihydroxystilbene] | 1.86 | 0.65 | decreases the expression |  |  | 46.02 | 19.97 | 0.91 | 0.65 | 1.07 | 0.71 | 0.38 | 1.09
